The values that follow come from the supplement of paper PMC6045584.

± gives the standard deviation of the averaged measurements.

Compound in assay [1]: COc1ccc(C2=N[C@@H](c3ccc(Cl)cc3)[C@@H](c3ccc(Cl)cc3)N2C(=O)N2CCNC(=O)C2)c(OC(C)C)c1 [NUTLIN3]
Description: area under dose-response curve of surviving fraction (unscaled, Aref=0) (surviving fraction x log10(nM)); higher = more resistant. The conditions noted are these: exposure time: 5 days; dose range 0.5-1000 nM. The method, boiled down: (§1)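 Tumour cell lines in 384-well plates were exposed for five days to eight inhibitor concentrations from 0.5 to 1000 nM. Viability was read by CellTiter-Glo luminescence, normalised to DMSO-only wells, in three screens per line. Dose-response survival curves were fitted to surviving fractions by 3-parameter logistic regression in the drc R package. Area under the curve is the unscaled activity area (Aref = 0) over log10 dose.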

Compound in assay [2]: C=CCNC1=C2C[C@@H](C)C[C@H](OC)[C@H](O)[C@@H](C)/C=C(\C)[C@H](OC(N)=O)[C@@H](OC)/C=C\C=C(/C)C(=O)NC(=CC1=O)C2=O [17-AAG]
The assay is described as above. To be noted: exposure time: 5 days; dose range 0.5-1000 nM. The method, boiled down: as §1

Compound in assay [3]: COc1cccc2c1C(=O)c1c(O)c3c(c(O)c1C2=O)C[C@@](O)(C(=O)CO)C[C@@H]3O[C@H]1C[C@H](N)[C@H](O)[C@H](C)O1 [DOXORUBICIN]
The description is as above. The conditions noted are these: exposure time: 5 days; dose range 0.5-1000 nM. The method, boiled down:
as §1

Compound in assay [4]: CCN(CC)CCCCNc1ncc2cc(-c3cc(OC)cc(OC)c3)c(NC(=O)NC(C)(C)C)nc2n1
The assay is described as above. The conditions noted are these: exposure time: 5 days; dose range 0.5-1000 nM. A digest of the protocol: as §1

Compound in assay [5]: COc1cc2c(cc1O)CC[C@@H]1[C@@H]2CC[C@]2(C)[C@@H](O)CC[C@@H]12 [2-METHOXYESTRADIOL]
The description is as above. The conditions noted are these: exposure time: 5 days; dose range 0.5-1000 nM. A digest of the protocol: as §1

Compound in assay [6]: CS(=O)(=O)CCNCc1ccc(-c2ccc3ncnc(Nc4ccc(OCc5cccc(F)c5)c(Cl)c4)c3c2)o1 [LAPATINIB]
The assay is described as above. To be noted: exposure time: 5 days; dose range 0.5-1000 nM. The method, boiled down:
as §1

Compound in assay [7]: Nc1ncn([C@H]2C[C@H](O)[C@@H](CO)O2)c(=O)n1 [DECITABINE]
The description is as above. To be noted: exposure time: 5 days; dose range 0.5-1000 nM. The method, boiled down: as §1

Compound in assay [8]: CS(=O)(=O)c1ccc(C(=O)Nc2ccc(Cl)c(-c3ccccn3)c2)c(Cl)c1 [VISMODEGIB]
The assay is described as above. The conditions noted are these: exposure time: 5 days; dose range 0.5-1000 nM. The method, boiled down:
as §1

Compound in assay [9]: T1, CN1CC[C@H](c2c(O)cc(O)c3c(=O)cc(-c4ccccc4Cl)oc23)[C@H](O)C1 [FLAVOPIRIDOL]
The description is as above. The conditions noted are these: exposure time: 5 days; dose range 0.5-1000 nM. The method, boiled down: as §1

Compound in assay [10]: O=c1[nH]cc(F)c(=O)[nH]1 [FLUOROURACIL]
Described as above. The conditions noted are these: exposure time: 5 days; dose range 0.5-1000 nM. The method, boiled down:
as §1

Compound in assay [11]: CN(C)CC[C@H](CSc1ccccc1)Nc1ccc(S(=O)(=O)NC(=O)c2ccc(N3CCN(Cc4ccccc4-c4ccc(Cl)cc4)CC3)cc2)cc1[N+](=O)[O-] [ABT-737]
Described as above. To be noted: exposure time: 5 days; dose range 0.5-1000 nM. The method, boiled down:
as §1

Compound in assay [12]: T1, FLAVOPIRIDOL
In words: surviving fraction relative to DMSO-only wells; higher = less growth inhibition. To be noted: exposure time: 5 days. The method, boiled down:
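After seeding at 250–500 cells per well in 384-well plates and a 24-hour wait, log-phase tumour cell lines were exposed without interruption for five days to inhibitors at 0.5, 1, 5, 10, 50, 100, 500 and 1000 nM. CellTiter-Glo luminescence was recorded after 10 minutes at room temperature. Viability is reported as surviving fraction, the luminescence normalised to the median of DMSO-only wells.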

Compound in assay [13]: CC[C@@H](C(=O)[C@@H](C)[C@@H](O)[C@H](C)[C@@H]1O[C@@H]([C@@H](CC)C(=O)O)CC[C@@H]1C)[C@H]1O[C@]2(C=C[C@@H](O)[C@]3(CC[C@@](C)([C@H]4CC[C@](O)(CC)[C@H](C)O4)O3)O2)[C@H](C)C[C@@H]1C [SALINOMYCIN]
In words: area under dose-response curve of surviving fraction (unscaled, Aref=0) (surviving fraction x log10(nM)); higher = more resistant. The conditions noted are these: exposure time: 5 days; dose range 0.5-1000 nM. A digest of the protocol: as §1

For the test system H23 LUNG, the “area under dose-response curve” value in assay [1] was 3.42; in assay [2], 1.66; in assay [3] it was 1.79; in assay [4], 3.28; in assay [5], 3.11; in assay [6], 2.77. In addition, the “area under dose-response curve” value in assay [7] was found to be 2.74; in assay [8], 3.43; in [9], 2.33; in [10], 3.28; in assay [11], 3.5. The surviving fraction in [12] (0.5 nM) was found to be 1.03 ± 0.034; in assay [12] (1 nM), 1.05 ± 0.027; in [12] (5 nM), 1.15 ± 0.073; in assay [12] (10 nM), 1.18 ± 0.079; in assay [12] (50 nM), 1.54 ± 0.11; in [12] (100 nM), 0.5197 ± 0.005. In addition, the results for the surviving fraction in assay [12] (500 nM) and in assay [12] (1000 nM) were 0.0303 ± 0.0015 and 0.026 ± 0.001, respectively.
In the case of HCC1395 BREAST, the “area under dose-response curve” value is 3.79 in [1]; 3.19 in assay [2]; 2.85 in [4]; 3.84 in assay [5]; 3.36 in assay [6]; 4.02 in [7]. Further, the “area under dose-response curve” value amounted to 2.48 in assay [8], 3.24 in [10] and 3.99 in assay [11]. Besides, the surviving fraction was 1 ± 0.21 in assay [12] (0.5 nM); 1.13 ± 0.062 in assay [12] (1 nM); 1.2 ± 0.097 in assay [12] (5 nM); 1.311 ± 0.006 in assay [12] (10 nM); 1.3 ± 0.16 in assay [12] (50 nM); 0.992 ± 0.14 in [12] (100 nM). The surviving fraction in assay [12] (500 nM) amounted to 0.51 ± 0.36; in [12] (1000 nM) it was 0.419 ± 0.19.
Consider HOS BONE, for which the “area under dose-response curve” value was 3.43 in [1]; 2.31 in assay [2]; 1.25 in assay [3]; 3.21 in [5]; 3.45 in assay [6]; 3.22 in assay [7]. Besides, the “area under dose-response curve” value worked out at 3.34 in [8]; 2.29 in [9]; 3.19 in assay [10]; 2.44 in [13]; 3.45 in [11]. Also, the surviving fraction in [12] (0.5 nM) stood at 1.02 ± 0.018; in assay [12] (1 nM), 1.03 ± 0.011; in assay [12] (5 nM), 1.034 ± 0.01; in assay [12] (10 nM), 1.04 ± 0.019; in assay [12] (50 nM) it was 0.9813 ± 0.0095; in [12] (100 nM) it was 0.352 ± 0.02. Also, the surviving fraction came out at 0.0367 ± 0.0072 in [12] (500 nM) and 0.035 ± 0.003 in [12] (1000 nM).
With RDES SOFT TISSUE, the “area under dose-response curve” value in assay [1] turned out to be 3.98; in assay [2], 2.13; in assay [3] it was 1.97; in assay [4], 3.98; in assay [6] it was 4.08; in assay [7] it was 3.9. The “area under dose-response curve” value in assay [9] stood at 2.51; in [10], 3.48; in assay [13] it was 2.26; in assay [11], 2.58. For the same test system, the surviving fraction is 1.36 ± 0.11 in assay [12] (0.5 nM); 1.3 ± 0.12 in assay [12] (1 nM); 1.39 ± 0.07 in assay [12] (5 nM); 1.44 ± 0.059 in [12] (10 nM); 1.66 ± 0.12 in assay [12] (50 nM); 0.945 ± 0.2 in [12] (100 nM). For the same test system, the surviving fraction turned out to be 0.0467 ± 0.0025 in assay [12] (500 nM) and 0.0383 ± 0.0025 in assay [12] (1000 nM).
As to SAOS2 BONE, the “area under dose-response curve” value in [1] came to 3.66; in assay [2] it was 1.66; in [3], 1.85; in [4] it was 3.79; in assay [6] it was 3.95; in assay [7], 3.06. In addition, the “area under dose-response curve” value in assay [8] turned out to be 3.12; in assay [9], 2.19; in [10] it was 2.91; in [13], 3.15; in [11], 3.87. Also, the surviving fraction in assay [12] (0.5 nM) came to 1.23 ± 0.13; in [12] (1 nM) it was 1.18 ± 0.06; in [12] (5 nM), 1.26 ± 0.039; in assay [12] (10 nM) it was 1.14 ± 0.04; in assay [12] (50 nM), 0.889 ± 0.048; in [12] (100 nM), 0.159 ± 0.022. For the same test system, the surviving fraction in [12] (500 nM) worked out at 0.0307 ± 0.0015; in [12] (1000 nM), 0.0247 ± 0.0025.
For the test system SCC003 HEADNECK, the “area under dose-response curve” value in [1] came to 3.48; in assay [2] it was 2.38; in assay [3], 2.03; in assay [4], 3.36; in assay [6], 3.11; in assay [7] it was 2.94. The “area under dose-response curve” value in assay [8] turned out to be 3.24; in [9], 2.22; in [10], 3.08; in [13] it was 2.91; in assay [11], 3.76. In addition, the surviving fraction in assay [12] (0.5 nM) stood at 1.06 ± 0.061; in assay [12] (1 nM), 1.1 ± 0.083; in [12] (5 nM), 1.12 ± 0.055; in assay [12] (10 nM) it was 0.987 ± 0.084; in [12] (50 nM), 0.667 ± 0.032; in assay [12] (100 nM) it was 0.392 ± 0.14. Further, the surviving fraction in [12] (500 nM) is 0.0627 ± 0.0064; in assay [12] (1000 nM), 0.0573 ± 0.0032.
As to SCC36 HEADNECK, the “area under dose-response curve” value in [1] was determined as 3.65; in assay [2] it was 1.66; in assay [3] it was 1.98; in [6], 2.91; in assay [7] it was 3.08; in assay [8] it was 2.89. Also, the “area under dose-response curve” value in assay [9] was 2.3; in assay [10], 2.79; in assay [13] it was 2.7; in assay [11], 3.58. In addition, the surviving fraction amounted to 0.982 ± 0.1 in assay [12] (0.5 nM); 0.974 ± 0.062 in [12] (1 nM); 1.14 ± 0.16 in assay [12] (5 nM); 1.24 ± 0.15 in assay [12] (10 nM); 0.962 ± 0.086 in assay [12] (50 nM); 0.405 ± 0.0093 in [12] (100 nM). Further, the results for the surviving fraction in assay [12] (500 nM) and in assay [12] (1000 nM) were 0.036 ± 0.0035 and 0.032 ± 0.001, respectively.
Regarding SUM149 BREAST, the “area under dose-response curve” value in [1] was 3.63; in assay [2], 1.29; in assay [3] it was 1.11; in [5], 2.9; in assay [6] it was 2.56; in assay [7], 2.01. For the same test system, the “area under dose-response curve” value in assay [8] came to 2.98; in assay [9], 2.09; in assay [10] it was 2.9; in assay [13] it was 2.62; in assay [11], 3.39. In addition, the surviving fraction in assay [12] (0.5 nM) was determined as 0.955 ± 0.031; in assay [12] (1 nM) it was 1.07 ± 0.051; in assay [12] (5 nM) it was 1.06 ± 0.033; in [12] (10 nM), 1.06 ± 0.087; in [12] (50 nM), 0.681 ± 0.027; in assay [12] (100 nM), 0.0783 ± 0.029. The surviving fraction in [12] (500 nM) was 0.018 ± 0.0027; in [12] (1000 nM) it was 0.0183 ± 0.0032.
